Where two headings read alike, the source gives them in different places.
How the values were obtained:
in vivo = conditions: male, CD1, mouse, iv, 20 mg/kg
Procedure: Brain Penetration Studies. […] The concentrations were determined by LC-MS/MS with direct measurement of the plasma samples. The brain tissue was homogenized with water using a 3:1 ratio of water (mL) to brain (g) before determination of the concentrations (ng/mL) in the brain homogenates, and the homogenate values then were multiplied by a factor of 4 to obtain the brain concentrations (ng/g).

[1] = mouse, 6 h, 1 μM; for % Bound: plasma
Procedure: (§2) Analysis of Plasma Protein Binding and Stability in Human and Mouse Blood Plasma by Equilibrium Dialysis. Frozen plasma (stored at −80° C.) was thawed immediately in a 37° C. water bath. The working solutions of test compound and control compound were prepared in DMSO at 200 μM concentration, and the working solutions were spiked into plasma. The final concentration of compound was 1 μM. The final concentration of DMSO was 0.5%. Ketoconazole was used as positive control in the assay. The dialysis membranes were soaked in ultrapure water for 60 min to separate strips, then in 20% ethanol for 20 min, and then finally in dialysis buffer for 20 min. For equilibrium dialysis, each cell contained plasma sample (150 μL) and was dialyzed against an equal volume of dialysis buffer (PBS). The assay was performed in duplicate. The dialysis plate was sealed and incubated at 37° C. with 5% CO2 at 100 rpm for 6 h. At the end of incubation, samples (50 μL) from both buffer and plasma chambers were transferred to wells of a 96-well plate. Plasma (50 μL) was added to each buffer sample and an equal volume of PBS was added to the collected plasma sample. Cold acetonitrile (400 μL) containing internal standards (IS, 100 nM alprazolam, 200 nM labetalol, 200 nM imipramine and 2 μM ketoprofen) was added to precipitate protein and release compounds. Samples were vortexed for 2 min and centrifuged for 30 min at 3,220 g. An aliquot (100 μL) of the supernatant was diluted with ultra-pure H2O (100 μL), and the mixture was used for LC-MS/MS analysis. For stability determination in plasma, a spiked plasma sample (50 μL) was transferred to a new plate and incubated at 37° C., 5% CO2 for 0 and 6 h. At designated time points, PBS (50 μL) was added and mixed thoroughly, followed by the addition of room temperature quench solution [400 μL of acetonitrile containing internal standards (IS, 100 nM alprazolam, 200 nM labetalol, 200 nM imipramine and 2 μM ketoprofen)] to precipitate protein and release compounds. Samples were vortexed for 2 min and centrifuged for 30 min at 3,220 g. An aliquot (400 μL) of the supernatant was diluted by ultra-pure H2O, and the mixture was used for LC-MS/MS analysis. The concentrations of test compounds in the buffer and plasma chambers were determined from peak area ratios.

SF-539 (CNS) = assay: NCI-60 cytotoxicity assay; type: cell-based; conditions: Homo sapiens; CNS SF-539, 48 h; read-out: Cytotoxicity GI50
How it was run: (§1)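 5-dose SRB assay, 100 μM–10 nM, 48 h exposure; % growth vs log[compound] yields GI50; compounds passing the pre-screen only.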

NCI-60 cancer cell lines = assay: NCI-60 cytotoxicity assay, MGM; type: cell-based; conditions: Homo sapiens; read-out: MGM (average GI50 across NCI-60 panel)
How it was run: as §1

Caco-2 cells = assay: Caco-2 permeability; type: in vitro ADME; conditions: for Efflux Ratio / Recovery (%)AP-BL / Recovery (%)BL-AP: Caco-2; for Papp (A→B) / Papp (B→A): Caco-2, 5 μM, 2 h
Procedure: Caco-2 Permeability Studies. The Caco-2 plate was removed from the incubator and washed twice with pre-warmed HBSS (10 mM HEPES, pH 7.4), and then incubated at 37° C. for 30 min. The stock solutions of controls compounds were diluted in DMSO to get 1 mM solutions and then diluted with HBSS (10 mM HEPES, pH 7.4) to get 5 μM working solutions. The stock solutions of the test compounds were diluted in DMSO to get 1 mM solutions and then diluted with HBSS (10 mM HEPES, pH 7.4) to get 5 μM working solutions. The final concentration of DMSO in the incubation system was 0.5%. To determine the rate of drug transport in the apical to basolateral direction, 75 μL of 5 μM working solutions of test compounds was added to the Transwell insert (apical compartment) and the wells in the receiver plate (basolateral compartment) were filled with 235 μL of HBSS (10 mM HEPES, pH 7.4). To determine the rate of drug transport in the basolateral to apical direction, 235 μL of 5 μM working solutions of test compounds were to the receiver plate wells (basolateral compartment) and then the Transwell inserts (apical compartment) were filled with 75 μL of HBSS (10 mM HEPES, pH 7.4). Time 0 samples were prepared by transferring 50 μL of 5 μM working solution to wells of the 96-deepwell plate, followed by the addition of 200 μL cold methanol containing appropriate internal standards (IS). The plates were incubated at 37° C. for 2 h. […] An aliquot of 100 μL of the supernatant was mixed with an appropriate volume of ultra-pure water before LC-MS/MS analysis. To determine the Lucifer Yellow leakage after 2 h transport period, stock solution of Lucifer yellow was prepared in ultra-pure water and diluted with HBSS (10 mM HEPES, pH 7.4) to reach the final concentration of 100 μM and then 100 μL of the Lucifer yellow solution was added to each Transwell insert (apical compartment), followed by filling the wells in the receiver plate (basolateral compartment) with 300 μL of HBSS (10 mM HEPES, pH 7.4). The plates were incubated at 37° C. for 30 minutes. Samples (80 μL) were removed directly from the apical and basolateral wells (using the basolateral access holes) and transferred to wells of new 96 wells plates.

[2] = human, 1 μM
Procedure: as §2

SN12C (Renal) = assay: NCI-60 cytotoxicity assay; type: cell-based, human; conditions: Renal SN12C, 48 h, read-out: Cytotoxicity GI50
How it was run: as §1

MCF7 (Breast) = assay: NCI-60 cytotoxicity assay; type: cell-based, human; conditions: Breast MCF7, 48 h, read-out: Cytotoxicity GI50
How it was run: as §1

UACC-62 (Melanoma) = assay: NCI-60 cytotoxicity assay; type: cell-based, human; conditions: Melanoma UACC-62, 48 h, read-out: Cytotoxicity GI50
How it was run: as §1

HOP-62 (Lung) = assay: NCI-60 cytotoxicity assay; type: cell-based, human; conditions: Lung HOP-62, 48 h, read-out: Cytotoxicity GI50
How it was run: as §1

HCT-116 (Colon) = assay: NCI-60 cytotoxicity assay; type: cell-based, human; conditions: Colon HCT-116, 48 h, read-out: Cytotoxicity GI50
How it was run: as §1

DU-145 (Prostate) = assay: NCI-60 cytotoxicity assay; type: cell-based, human; conditions: Prostate DU-145, 48 h, read-out: Cytotoxicity GI50
How it was run: as §1

OVCAR-3 (Ovarian) = assay: NCI-60 cytotoxicity assay; type: cell-based, human; conditions: Ovarian OVCAR-3, 48 h, read-out: Cytotoxicity GI50
How it was run: as §1

[3] = Maximum tolerated dose determination in NOD SCID mice; type: in vivo; conditions: QD x 5; for Body Weight %: 7 days after first dose; for Maximum tolerated dose (MTD): NOD SCID mice, IV, body weight % ≥80%
Procedure: Maximum Tolerated Dose Determinations. […]. […] Experiments involving 100 mg/kg doses of all three drugs were terminated after one day because of toxicity, while the study involving 50 mg/kg dose of G105 was also halted after one day (FIG. 12). Similarly, the investigation with a 40 mg/kg dose of G105 was discontinued after two days (FIG. 13).

Row | Compound | % Recovery [1] | % Bound [1] | GI50 (SF-539 (CNS)) | GI50 (NCI-60 cancer cell lines) | Recovery (%)AP-BL (Caco-2 cells) | Recovery (%)BL-AP (Caco-2 cells) | Papp (A→B) (Caco-2 cells) | Papp (B→A) (Caco-2 cells) | % Stability at 6 hrs [2] | GI50 (SN12C (Renal); Homo sapiens) | GI50 (MCF7 (Breast); Homo sapiens) | GI50 (UACC-62 (Melanoma); Homo sapiens) | GI50 (HOP-62 (Lung); Homo sapiens) | GI50 (HCT-116 (Colon); Homo sapiens) | GI50 (DU-145 (Prostate); Homo sapiens) | GI50 (OVCAR-3 (Ovarian); Homo sapiens) | Body Weight % ([3]; 5 mg/Kg IV) | Body Weight % ([3]; 10 mg/Kg IV) | Body Weight % ([3]; 15 mg/Kg IV) | Body Weight % ([3]; 20 mg/Kg IV) | further results
1 | CCNCCCn1c2c(c3cc(OC)c(OC)cc3c1=O)C(=O)c1cc3c(nc1-2)OCO3 [G104, 6-(3-(Ethylamino)propyl)-2,3-dimethoxy-5H-[1,3]dioxolo[4″,5″:5′,6′]pyrido [3′,2′:4,5]cyclopenta[1,2-c]isoquinoline-5,12(6H)-dione] | 80.60% | 83.44% | 0.68 µM | 1.45 µM | 54.60% | 81.64% | 1.69 10^−6, cm/s | 16.04 10^−6, cm/s | 86.15% | 4.61 µM | 0.075 µM | 1.81 µM | 0.2 µM | 1.18 µM | 0.55 µM | 11.3 µM | 92.4% | 95.2% | 87% | 83.3% | Cmax (in vivo): 1610 ng/g; Vd (in vivo): 58.4 L/kg; half-life (in vivo): 7.06 h; Efflux Ratio (Caco-2 cells): 9.51; Body Weight % ([3]; 30 mg/Kg IV): 88.8%; Body Weight % ([3]; 40 mg/Kg IV): 78.8%; Maximum tolerated dose (MTD) [3]: 30 mg/kg
2 | COc1cc2c3c(n(CCCNCCO)c(=O)c2cc1OC)-c1nc2c(cc1C3=O)OCO2 [G105, 6-(3-((2-Hydroxyethyl)amino)propyl)-2,3-dimethoxy-5H-[1,3]dioxolo[4″,5″:5′,6′]pyrido[3′,2′:4,5]cyclopenta[1,2-c]isoquinoline-5,12(6H)-dione] | 90.43% | 79.41% | 1 µM | 2.95 µM | 75.07% | 95.77% | 2.39 10^−6, cm/s | 18.16 10^−6, cm/s | 95.42% | 3.94 µM | 0.26 µM | 2.38 µM | 0.42 µM | 1.25 µM | 2.71 µM | 5.65 µM | 97.2% | 95.5% | 79.2% | 82% | Vd (in vivo): 29 L/kg; Efflux Ratio (Caco-2 cells): 7.60; GI50 (SN12C (Renal)): 3.94 µM; GI50 (MCF7 (Breast)): 0.26 µM; GI50 (UACC-62 (Melanoma)): 2.38 µM; GI50 (HOP-62 (Lung)): 0.42 µM; GI50 (HCT-116 (Colon)): 1.25 µM; GI50 (DU-145 (Prostate)): 2.71 µM; GI50 (OVCAR-3 (Ovarian)): 5.65 µM; Body Weight % ([3]; 30 mg/Kg IV): 74.7%; Maximum tolerated dose (MTD) [3]: 20 mg/kg
3 | COc1cc2c3c(n(CCCNC(C)C)c(=O)c2cc1OC)-c1nc2c(cc1C3=O)OCO2 [G103, 6-(3-(Isopropylamino)propyl)-2,3-dimethoxy-5H-[1,3]dioxolo [4″,5″:5′,6′]pyrido[3′,2′:4,5]cyclopenta[1,2-c]isoquinoline-5,12(6H)-dione] | 88.02% | 84.11% | 1.52 µM | 2.19 µM | 36.17% | 75.54% | 1.55 10^−6, cm/s | 8.95 10^−6, cm/s | 94.96% | 10.6 µM | 0.1 µM | 9.84 µM | 0.47 µM | 1.04 µM | 1.05 µM | 14.3 µM | 92.4% | 93% | 93.9% | 86% | Cmax (in vivo): 3810 ng/g; Body Weight % ([3]; 30 mg/Kg IV): 85.1%; Body Weight % ([3]; 40 mg/Kg IV): 85.3%; Body Weight % ([3]; 50 mg/Kg IV): 86.6%; Body Weight % ([3]; 60 mg/Kg IV): 74%; Maximum tolerated dose (MTD) [3]: 50 mg/kg

Reference: patent US20240287089A1, “Preparation and Uses of 7-Azaindenoisoquinolines” (Purdue Research Foundation, priority 0001, published 2024)
